Patent publication US6465515B2, “Solid compositions suitable for oral administration containing non-hydroscopic salts of L-carnitine and alkanoyl L-carnitines” (Sigma-Tau Industrie Farmaceutiche Riunite S.p.A., priority 1998, dated 2002)

Assay: hygroscopicity of the salts
Assay type: physicochemical
Conditions: isolated solid

SMILES	hygroscopicity
CCC(=O)O[C@H](CC(=O)O)C[N+](C)(C)C [Example 1, Propionyl L-carnitine Pamoate]	non-hygroscopic
CC(=O)O[C@H](CC(=O)O)C[N+](C)(C)C [Example 3, Acetyl L-carnitine Pamoate]	non-hygroscopic
